From patent US6531148B1, “Therapeutic agents” (Takara Shuzo Co., Ltd., priority 1998, dated 2003)
Like-named read-outs stand apart in the source and are kept apart here.

Columns and labels:
DSEK cells = assay: Antirheumatic activity test (DSEK cell growth, WST-1); type: cell-based, human; conditions: for antirheumatic activity (growth inhibition of rheumatoid cells) / IC50: DSEK cells; for IC50: Homo sapiens, read-out: concentration that results in the inhibition of the growth of half-cells (IC50)
Protocol: DSEK cell is a fibroblast cell line established from a synovial membrane of a human patient with chronic rheumatism and is held at Department of Second Internal Medicine, Integrated Medical Center, Saitama Collage of Medicine as an in vitro rheumatoid model. DSEK cells were cultured in Iscov-MEM medium (IMDM: Gibco-BRL) containing 10% FBS (Bio Whittaker) at 37° C. in the presence of 5% CO2 to confluence. The cells were suspended in the same medium at a concentration of 3×10^4 cells/ml using a trypsin-EDTA solution (Bio Whittaker). 200 μl of the suspension was dispensed into each well of a 96-well microtiter plate (Falcon). After culturing for 5 to 7 days at which time the cells grew to 80% confluence, the medium was changed to 200 μl of the above-mentioned medium containing DGE at a 25, 50, 75, 100, 200 or 400 μM.
After incubating for 24 or 72 hours, 10 μl of Premix WST-1 (Takara Shuzo, MK400) was added to the well. The mixture was reacted at 37° C. for 3.5 hours. The degree of cell growth was expressed by a value obtained by subtracting the absorbance at 650 nm (A650) from the absorbance at 450 nm (A450).

[1] = system: Salmonella typhimulium TA1535/pSK1002; type: cell-based
Protocol: An antimutagenic activity was determined according to a method for detecting an environmental mutagen by the umu test, which can determine mutagenicity with reference to the β-galactosidase activity (Mutation Research, 147: 219 (1985)). Briefly, 25 μl of mutagen [mitomycin C (a DNA crosslinker) at 10 μg/ml or 4-nitroquinoline-1-oxide (NQO, a DNA methylating agent) at 7 μg/ml] was added to 50 μl of DGE solution at a varying concentration (1.0, 5.0, 10 or 15 mM). A culture of Salmonella typhimulium TA1535/pSK1002 in TGA medium at OD600 of 0.12 was added to the mixture to make the final volume to 1.5 ml. The mixture was then incubated at 37° C. for 2 hours with shaking. 200 μl of the culture was used to measure the β-galactosidase activity according to the method of Miller [Experiments in molecular genetics, pp. 352 (1972)].

[2] = system: 70-kDa heat shock protein; assay: Heat shock protein induction test; type: cell-based; parameters: key to Induction of heat shock protein: − means that no induction was observed; + represents the induction level. Increased number of + means increased induction; + +: + represents the induction level. Increased number of + means increased induction; + + +: + represents the induction level. Increased number of + means increased induction; + + + +: + represents the induction level. Increased number of + means increased induction; conditions: HL-60 cells; for activity of inducing heat shock protein: 70-kDa heat shock protein; for Induction of heat shock protein: 6 hours
Protocol: 5 ml of RPMI 1640 medium containing 10% fetal bovine serum and HL-60 cells at a concentration of 2×10^5 cells/ml was placed in each well of a 6-well plate. The plate was incubated at 37° C. for 24 hours in the presence of 5% CO2. DGE at a final concentration of 0, 6.25, 12.5, 25, 50 or 100 μM was then added thereto. The incubation was continued for additional 6 hours.
After cultivation, the cell number was counted.
The cells were harvested by centrifugation, washed with PBS to prepare DGE-treated cells. Cells that were cultured in the same manner after heated at 45° C. for 10 minutes were also prepared.
These treated cells were used for SDS-PAGE according to the method as described in Molecular Cloning [Cold Spring Harbor Laboratory Press (1989)]. The treated cells were suspended in SDS-PAGE Sample buffer at a concentration of 2.5×10^6 cells/ml. The cell suspensions were treated at 100° C. for 10 minutes. 5 μl each of the cell suspensions was applied to two SDS-PAGE gels (5% stacking gel, 10% separation gel) and electrophoresed. One of the gels was subjected to Coomassie staining. The other gel was blotted onto a polyvinylidene difluoride transfer membrane [Immobilon™, Millipore, Cat. # IPVH000-10]. The membrane was blocked at 4° C. overnight using Block Ace (Dainippon Pharmaceutical, Cat. # UK-B25).
The blocked membrane was reacted with a monoclonal antibody HSP72/73(Ab-1) (Oncogene Research Products, Cat. # HSP01), which specifically reacts with heat-inducible 70-kDa heat shock protein. The membrane was washed with TBS containing 0.05% Tween 20 followed by TBS. The membrane was then reacted with a peroxidase-conjugated secondary antibody HRT-rabbit anti-mouse IgG (H+L) (Zymed Laboratories, Inc., Cat. # 61-6520), and then washed as described above. The membrane reacted with the primary and secondary antibodies was reacted with a chemiluminol reagent, Renaissance™ (Dupont NEN, Cat. # NEL-100). The membrane was then exposed to an X-ray film to confirm the induction of 70-kDa heat shock protein.

Bacteria 1 to 5 = assay: Antimicrobial activity test (overall statement); type: cell-based
Protocol: The antimicrobial activities of DGE against Escherichia coli W3110 (Bacterium 1), Salmonella typhimurium LT2 (Bacterium 2), Bacillus subtilis IFO3021 (Bacterium 3), Pseudomonas aeruginosa IFO3080 (Bacterium 4) and Streptococcus mutans GS5 (Bacterium 5) were examined as follows.
The Bacteria 1 to 4 were cultured overnight in L-broth. The cultures were diluted to a concentration of about 2×10^5 cells/180 μl with Sensitive Bouillon medium (Nissui) base on the turbidity. The Bacterium 5 was cultured overnight in Brain Heart Infusion medium. The culture was diluted to a concentration of about 2×10^5 cells/180 μl with Brain Heart Infusion medium based on the turbidity. 180 μl of each bacterial dilution was placed in each well of a 96-well microtiter plate. On the other hand, the respective bacterial dilutions were further diluted and spread onto plates of L-broth or Brain Heart Infusion medium. The plates were incubated at 37° C. overnight. The resulting colonies were counted to determine the stating viable cell numbers.
A 14.4 mg/ml DGE solution was diluted every 2-folds to prepare serial dilutions. 20 μl each of the dilutions was placed in the well in which the bacterial dilution had been placed. The cells were cultured at 37° C. for 24 hours without shaking. After cultivation, the turbidity of each culture was measured.
Furthermore, the culture from the well for which the growth of bacterial cells was not observed was spread onto plates. After the plates were incubated at 37° C. overnight, the colony number was counted to determine the viable cell number. […] The minimal growth-inhibitory concentrations and the minimal bacteriocidal concentrations of DGE for the Bacteria 1 to 5 were determined as shown in Table 2.

5-L-glutathion-S-yl-2-hydroxy-3,7-dioxabicyclo[2.2.2]octan-1-ol [DGE-GSH]
antirheumatic activity (growth inhibition of rheumatoid cells) (DSEK cells): also exhibited similar activities
antimutagenic activity [1]: also exhibited similar activities
activity of inducing heat shock protein [2]: also exhibited similar activities of inducing heat shock protein
antimicrobial activity (Bacteria 1 to 5): also exhibited similar activities

O=C1C=CC(CO)OC1O [DGE, L-glycero-1,5-epoxy-1αβ,6-dihydroxy-cis-hex-3-en-2-one]
Degree of cell growth (A450-650) (DSEK cells; DGE 25 μM, culture period 24 hours, 0 μM 3.98): 3.86
Degree of cell growth (A450-650) (DSEK cells; DGE 25 μM, culture period 72 hours, 0 μM 3.94): 3.33
Degree of cell growth (A450-650) (DSEK cells; DGE 50 μM, culture period 24 hours, 0 μM 3.98): 3.24
Degree of cell growth (A450-650) (DSEK cells; DGE 50 μM, culture period 72 hours, 0 μM 3.94): 3.25
Degree of cell growth (A450-650) (DSEK cells; DGE 100 μM, culture period 24 hours, 0 μM 3.98): 2.88
Degree of cell growth (A450-650) (DSEK cells; DGE 100 μM, culture period 72 hours, 0 μM 3.94): 2.05
Degree of cell growth (A450-650) (DSEK cells; DGE 200 μM, culture period 24 hours, 0 μM 3.98): 1.26
Degree of cell growth (A450-650) (DSEK cells; DGE 200 μM, culture period 72 hours, 0 μM 3.94): 0.48
Degree of cell growth (A450-650) (DSEK cells; DGE 400 μM, culture period 24 hours, 0 μM 3.98): 0.71
Degree of cell growth (A450-650) (DSEK cells; DGE 400 μM, culture period 72 hours, 0 μM 3.94): 0.35
antirheumatic activity (growth inhibition of rheumatoid cells) (DSEK cells): the growth of the rheumatoid cells was strongly inhibited
IC50 (DSEK cells; at 24 hours): 207 µM
IC50 (DSEK cells; at 72 hours): 112 µM
antimutagenic activity ([1]; against NQO, DGE final concentration 0.5 mM): 36%
antimutagenic activity ([1]; against mitomycin C, DGE final concentration 0.5 mM): 37%
β-Galactosidase activity ([1]; mutagen Mitomycin C, DGE final concentration 0.03 mM, without DGE 611): 590
β-Galactosidase activity ([1]; mutagen Mitomycin C, DGE final concentration 0.17 mM, without DGE 611): 570
β-Galactosidase activity ([1]; mutagen Mitomycin C, DGE final concentration 0.33 mM, without DGE 611): 451
β-Galactosidase activity ([1]; mutagen Mitomycin C, DGE final concentration 0.5 mM, without DGE 611): 383
β-Galactosidase activity ([1]; mutagen NQO, DGE final concentration 0.03 mM, without DGE 1437): 1376
β-Galactosidase activity ([1]; mutagen NQO, DGE final concentration 0.17 mM, without DGE 1437): 1212
β-Galactosidase activity ([1]; mutagen NQO, DGE final concentration 0.33 mM, without DGE 1437): 1038
β-Galactosidase activity ([1]; mutagen NQO, DGE final concentration 0.5 mM, without DGE 1437): 926
activity of inducing heat shock protein [2]: the induction of 70-kDa heat shock protein by DGE was observed
Induction of heat shock protein ([2]; 6.25 μM DGE): +
Induction of heat shock protein ([2]; 12.5 μM DGE): +
Induction of heat shock protein ([2]; 25.0 μM DGE): + +
Induction of heat shock protein ([2]; 50.0 μM DGE): + + +
Induction of heat shock protein ([2]; 100 μM DGE): + + + +
antimicrobial activity (Bacteria 1 to 5): exhibited an antimicrobial activity

O=C1C=CC(CO)OC1O [κ-DGE, D-glycero-1,5-epoxy-1αβ,6-dihydroxy-cis-hex-3-en-2-one]
antirheumatic activity (growth inhibition of rheumatoid cells) (DSEK cells): also exhibited similar activities
antimutagenic activity [1]: also exhibited similar activities
activity of inducing heat shock protein [2]: also exhibited similar activities of inducing heat shock protein
antimicrobial activity (Bacteria 1 to 5): also exhibited similar activities
